Here are results for two molecules from patent US20080051598A1, “Process for Production of Polysubstituted Cyclobutanes and Polysubstituted Cyclobutenes” (priority 2004, published 2008).

Assay [1] deals with cultured Plasmodium falciparum. As to the kind of experiment: growth inhibition of malaria parasites. Particulars: read-out: concentration at which growth of cultured Plasmodium falciparum was 50% inhibited. The assay is classed as cell-based. The procedure:
An evaluation was conducted of growth inhibition of malaria parasites by a compound 9 derived by chemical conversion of cyclobutane compound 8 synthesized according to the present invention. As a result, the growth of cultured Plasmodium falciparum was 50% inhibited by a low concentration of 1 μM of compound 9. [drawing 60]

Assay [2] concerns colon cancer cells (HCT116). Put plainly: anti-tumor effects, growth of colon cancer cells. Particulars: concentration 25 μg/mL. It counts as cell-based. How it is done: An evaluation was conducted of the anti-tumor effects of a compound 11 derived by chemical conversion of cyclobutane compound 10 synthesized according to the present invention. As a result, the growth of colon cancer cells (HCT116) was inhibited by a low concentration of 25 μg/mL of compound 11. [drawing 61]

Structures are written as SMILES.

Regarding `OC[C@H]1C2CCC[C@@]23CCC[C@@]13O` (some centres unmarked) [compound 9], the IC50 in assay [1] came out at 1 µM.

With `CC(=O)OC12CCC1(C)C1CC(C)(C)CC2C=C1C` (centres unmarked) [compound 11], the “growth of colon cancer cells (HCT116)” value in assay [2] was “inhibited”.
